Reference: patent US20260115185A1, “QUINOLINE DERIVATIVES WHICH ACT AS KAPPA-OPIOID RECEPTOR ANTAGONISTS” (The Scripps Research Institute, priority 2023, published 2026)

Columns and labels:
[1] = biological target: T1, kappa opioid receptor (KOR) (Homo sapiens, UniProt P41145); experiment: OPRKappa 1 Tango B-Arrestin Assay, antagonist mode (Tango OPRK1-bla U2OS cells, U50488 EC80 challenge); type: cell-based; conditions: for Selectivity (MOR/KOR): Kappa selectivity, MOR IC50 / KOR IC50; for IC50: antagonist mode, Tango OPRK1-bla U2OS cells, 6 nM U50488 challenge
T1 construct: host or cells: U2OS (Tango OPRK1-bla U2OS)
T1 sequence (P41145 whole entry): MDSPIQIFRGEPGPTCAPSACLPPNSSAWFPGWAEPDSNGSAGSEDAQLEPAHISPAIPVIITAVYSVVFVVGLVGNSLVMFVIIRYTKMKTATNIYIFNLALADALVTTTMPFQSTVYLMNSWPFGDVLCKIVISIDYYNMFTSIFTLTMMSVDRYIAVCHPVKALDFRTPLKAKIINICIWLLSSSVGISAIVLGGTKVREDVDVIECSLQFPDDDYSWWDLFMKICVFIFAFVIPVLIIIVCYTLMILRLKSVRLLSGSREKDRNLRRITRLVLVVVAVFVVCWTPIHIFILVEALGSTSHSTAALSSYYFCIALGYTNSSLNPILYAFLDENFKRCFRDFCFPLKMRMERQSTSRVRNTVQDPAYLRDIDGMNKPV
Method in brief: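 Tango OPRK1-bla U2OS cells, β-arrestin recruitment read as β-lactamase FRET (CCF4-AM, 460/590 nm emission). Compounds, 10-point 1:3 series from nominal 10 µM in quadruplicate, preincubated 30 min at 37 °C, then challenged with U50488 at 6 nM final (EC80) for 4 h; percent inhibition from median ratio.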

mu opioid receptor (MOR) = biological target: T2, mu opioid receptor (MOR) (Homo sapiens, UniProt P35372); experiment: OPRMu1 Discover X β-arrestin Assay, antagonist mode (U2OS cells, DAMGO EC80 challenge); type: cell-based
T2 construct: host or cells: U2OS (Discover X OPRMu1-U2OS, PathHunter)
T2 sequence (P35372 whole entry): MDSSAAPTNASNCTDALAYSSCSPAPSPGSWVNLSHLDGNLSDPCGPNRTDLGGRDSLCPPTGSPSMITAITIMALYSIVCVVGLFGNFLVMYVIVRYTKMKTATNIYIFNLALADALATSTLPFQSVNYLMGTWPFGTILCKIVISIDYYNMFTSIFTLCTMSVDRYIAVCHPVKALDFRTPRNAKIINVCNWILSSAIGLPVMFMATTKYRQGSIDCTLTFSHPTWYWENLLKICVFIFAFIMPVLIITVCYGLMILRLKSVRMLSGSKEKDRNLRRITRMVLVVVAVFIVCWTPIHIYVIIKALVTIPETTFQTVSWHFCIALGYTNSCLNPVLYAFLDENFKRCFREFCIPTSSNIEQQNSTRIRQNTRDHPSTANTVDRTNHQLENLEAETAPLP
Method in brief: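 PathHunter U2OS cells with β-gal fragment-complementation readout for β-arrestin recruitment to OPRMu1. Cells were preincubated with compound (10-point, 1:3 series from nominal 10 micromolar) for 30 min at 37 °C, then challenged with 303 nM DAMGO (EC80) for 3 h. Luminescence gave percent inhibition.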

| Structure (SMILES) | Selectivity (MOR/KOR) [1] | IC50 [1] [nM] | IC50 (mu opioid receptor (MOR)) [nM] |
| --- | --- | --- | --- |
| CCc1cc(F)c2nc(N3CCC(N[C@H]4COC[C@H]4F)CC3)c(-c3ccn(C)n3)c(C)c2c1 [Compound 72, 1-(6-ethyl-8-fluoro-4-methyl-3-(1-methyl-1H-pyrazol-3-yl)quinolin-2-yl)-N-((3S,4S)-4-fluorotetrahydrofuran-3-yl)piperidin-4-amine] | ++ (between 10- and 100-fold selectivity) | 10 to 100 | > 1000 |
| CCc1cc(F)c2nc(N3CCN([C@@H]4CCOC4)C[C@H]3C)c(-c3nc(C)no3)c(C)c2c1 [Compound 31] | ++ (between 10- and 100-fold selectivity) | ≥ 100 | > 1000 |
| CCc1cc(C#N)c2nc(N3CCC(N4CCOC[C@@H]4C)CC3)c(-c3ccn(C)n3)c(C)c2c1 [Compound 81] | ++ (between 10- and 100-fold selectivity) | 10 to 100 | > 1000 |
| CCc1cc(F)c2nc(N3CCN(C[C@@H]4CCOC4)C[C@H]3C)c(-c3nc(C)no3)c(C)c2c1 [Compound 203] | +++ (between 100- to 1000-fold selective) | 10 to 100 | > 1000 |
| CCc1cc(F)c2nc(N3CCN(C[C@H]4CCCO4)C[C@H]3C)c(-c3nc(C)no3)c(C)c2c1 [Compound 30] | +++ (between 100- to 1000-fold selective) | 1 to 10 | > 1000 |
| CCc1cc(F)c2nc(N3CCN(C(C)C4CCOCC4)C[C@H]3C)c(-c3nc(C)no3)c(C)c2c1 (stereo partly drawn) [Compound 199, 5-(6-ethyl-8-fluoro-4-methyl-2-((2R)-2-methyl-4-(1-(tetrahydro-2H-pyran-4-yl)ethyl)piperazin-1-yl)quinolin-3-yl)-3-methyl-1,2,4-oxadiazole] | ++++ (more than 1000-fold selectivity over MOR) | 10 to 100 | > 1000 |
| CCc1cc(F)c2nc(N3CCC(NCC4(F)CC4)CC3)c(-c3cc(C)n(C)n3)c(C)c2c1 [Compound 19, 1-(3-(1,5-dimethyl-1H-pyrazol-3-yl)-6-ethyl-8-fluoro-4-methylquinolin-2-yl)-N-((1-fluorocyclopropyl)methyl)piperidin-4-amine] | +++ (between 100- to 1000-fold selective) | 1 to 10 | 100 to 1000 |
| CCc1cc(F)c2nc(N3CCN(CC4CCOCC4)C4CC43)c(-c3nc(C)no3)c(C)c2c1 (centres unmarked) [Compound 60] | – | ≥ 100 | > 1000 |
| CCc1cc(F)c2nc(N3CCN(C(=O)CN4CCC(F)(F)CC4)C[C@H]3C)c(-c3nc(C)no3)c(C)c2c1 [Compound 156] | ++ (between 10- and 100-fold selectivity) | 1 to 10 | 100 to 1000 |
| CCc1cc(F)c2nc(N3CC[C@H](N[C@@H]4CCOC4)[C@H](F)C3)c(-c3ccn(C)n3)c(C)c2c1 [Compound 194, (3R,4S)-1-(6-ethyl-8-fluoro-4-methyl-3-(1-methyl-1H-pyrazol-3-yl)quinolin-2-yl)-3-fluoro-N—((R)-tetrahydrofuran-3-yl)piperidin-4-amine] | +++ (between 100- to 1000-fold selective) | 1 to 10 | > 1000 |
| CCc1cc(F)c2nc(N3CCN(C4CC5(COC5)C4)C[C@H]3C)c(-c3nc(C)no3)c(C)c2c1 [Compound 41] | +++ (between 100- to 1000-fold selective) | 10 to 100 | > 1000 |
| CCc1cc(F)c2nc(N3CCN(C(=O)[C@H](C(C)C)N4CCCC4)C[C@H]3C)c(-c3nc(C)no3)c(C)c2c1 [Compound 152] | +++ (between 100- to 1000-fold selective) | 1 to 10 | > 1000 |
| CCN/C(=N/C#N)N1CCN(c2nc3c(F)cc(CC)cc3c(C)c2-c2ccn(C)n2)[C@H](C)C1 [Compound 10, (R,E)-N′-cyano-N-ethyl-4-(6-ethyl-8-fluoro-4-methyl-3-(1-methyl-1H-pyrazol-3-yl)quinolin-2-yl)-3-methylpiperazine-1-carboximidamide] | ++ (between 10- and 100-fold selectivity) | ≥ 100 | > 1000 |
| CCc1cc(F)c2nc(N3CCN(C(=O)C(C)(C)N4CCCC4)C[C@H]3C)c(-c3cc(C)no3)c(C)c2c1 [Compound 179] | ++ (between 10- and 100-fold selectivity) | 10 to 100 | > 1000 |
| CCc1cc(F)c2nc(N3CCN(C(=O)[C@@H]4CCCN4C)C[C@H]3C)c(-c3cc(C)no3)c(C)c2c1 [Compound 165] | +++ (between 100- to 1000-fold selective) | 10 to 100 | > 1000 |
| CCc1cc(-c2ccnn2C)c2nc(N3CCNC4CC43)c(-c3ccn(C)n3)c(C)c2c1 (centres unmarked) [Compound 24, 2-(2,5-diazabicyclo[4.1.0]heptan-2-yl)-6-ethyl-4-methyl-3-(1-methyl-1H-pyrazol-3-yl)-8-(1-methyl-1H-pyrazol-5-yl)quinoline] | + (less than 10-fold selectivity) | ≥ 100 | > 1000 |
| CCc1cc(F)c2nc(N3CCN(CC4CCOCC4)C[C@H]3C)c(-c3nc(C)no3)c(C)c2c1 [Compound 49, (R)-5-(6-ethyl-8-fluoro-4-methyl-2-(2-methyl-4-((tetrahydro-2H-pyran-4-yl)methyl)piperazin-1-yl)quinolin-3-yl)-3-methyl-1,2,4-oxadiazole] | +++ (between 100- to 1000-fold selective) | 10 to 100 | > 1000 |
| CCc1cc(F)c2nc(N3CC[C@@H](N[C@@H]4CCOC4)[C@H](F)C3)c(-c3ccn(C)n3)c(C)c2c1 [Compound 196, (3R,4R)-1-(6-ethyl-8-fluoro-4-methyl-3-(1-methyl-1H-pyrazol-3-yl)quinolin-2-yl)-3-fluoro-N—((R)-tetrahydrofuran-3-yl)piperidin-4-amine] | +++ (between 100- to 1000-fold selective) | 1 to 10 | > 1000 |
| CCc1cc(F)c2nc(N3CCN(C(=O)C4CN(C)C4)C[C@H]3C)c(-c3nc(C)no3)c(C)c2c1 [Compound 45] | ++ (between 10- and 100-fold selectivity) | 10 to 100 | > 1000 |
| CCc1cc(F)c2nc(N3CC[C@H](N[C@@H]4CCOC4)[C@@H](F)C3)c(-c3ccn(C)n3)c(C)c2c1 [Compound 195, (3S,4S)-1-(6-ethyl-8-fluoro-4-methyl-3-(1-methyl-1H-pyrazol-3-yl)quinolin-2-yl)-3-fluoro-N—((R)-tetrahydrofuran-3-yl)piperidin-4-amine] | ++++ (more than 1000-fold selectivity over MOR) | 1 to 10 | > 1000 |
| CCc1cc(F)c2nc(N3CCN(C(=O)[C@H]4CC(F)(F)CCN4C)C[C@H]3C)c(-c3nc(C)no3)c(C)c2c1 [Compound 205, ((R)-4,4-difluoro-1-methylpiperidin-2-yl)((R)-4-(6-ethyl-8-fluoro-4-methyl-3-(3-methyl-1,2,4-oxadiazol-5-yl)quinolin-2-yl)-3-methylpiperazin-1-yl)methanone] | +++ (between 100- to 1000-fold selective) | 1 to 10 | > 1000 |
| CCc1cc(F)c2nc(N3CCN(C(=O)[C@H](C)N4CCCC4)C[C@H]3C)c(-c3nc(C)no3)c(C)c2c1 [Compound 201] | +++ (between 100- to 1000-fold selective) | 1 to 10 | 100 to 1000 |
| CCc1cc(C#N)c2nc(N3CCC(NC4CC(F)(F)C4)CC3)c(-c3ccn(C)n3)c(C)c2c1 [Compound 79] | +++ (between 100- to 1000-fold selective) | 1 to 10 | > 1000 |
| CCc1cc(-c2ccnn2C)c2nc(N3CCC(N[C@@H]4COC[C@@H]4F)CC3)c(-c3ccn(C)n3)c(C)c2c1 [Compound 88] | ++ (between 10- and 100-fold selectivity) | 1 to 10 | 100 to 1000 |
| CCc1cc(F)c2nc(N3CCC(N[C@@H]4CCOC[C@H]4F)CC3)c(-c3cc(C)n(C)n3)c(C)c2c1 [Compound 4, 1-(3-(1,5-dimethyl-1H-pyrazol-3-yl)-6-ethyl-8-fluoro-4-methylquinolin-2-yl)-N-((3S,4R)-3-fluorotetrahydro-2H-pyran-4-yl)piperidin-4-amine] | ++ (between 10- and 100-fold selectivity) | 10 to 100 | 100 to 1000 |
| CCc1cc(-c2ccnn2C)c2nc(N3CCC(N[C@@H]4CCOC[C@@H]4F)CC3)c(-c3ccn(C)n3)c(C)c2c1 [Compound 20, 1-(6-ethyl-4-methyl-3-(1-methyl-1H-pyrazol-3-yl)-8-(1-methyl-1H-pyrazol-5-yl)quinolin-2-yl)-N-((3R,4R)-3-fluorotetrahydro-2H-pyran-4-yl)piperidin-4-amine] | ++ (between 10- and 100-fold selectivity) | < 1 | 10 to 100 |
| CCc1cc(F)c2nc(N3CCN(C(=O)[C@H](CO)N(C)C)C[C@H]3C)c(-c3nc(C)no3)c(C)c2c1 [Compound 162] | +++ (between 100- to 1000-fold selective) | 1 to 10 | > 1000 |
| CCc1cc(F)c2nc(N3CCN(CC(C)C)C[C@H]3C)c(-c3nc(C)no3)c(C)c2c1 [Compound 25] | +++ (between 100- to 1000-fold selective) | < 1 | > 1000 |
